Where two headings read alike, the source gives them in different places.
What was measured:
[1] = target: Gal4 DNA binding domain fused to the LBD of LXRα in HEK293 cells (Homo sapiens (Human), UniProt Q13133); test: LXR luciferase transcriptional reporter gene assay, agonist mode, LXRα; format: cell-based; conditions: for EC50: read-out: Cell LXRα EC50
[2] = target: Gal4 DNA binding domain fused to the LBD of LXRβ in HEK293 cells (Homo sapiens (Human), UniProt P55055); test: cell-based
LXR α LBD protein [3] = target: T1, LXR α LBD protein (Homo sapiens (Human), UniProt Q13133); test: Human LXRα coactivator recruitment FRET assay, agonist mode; format: biochemical; conditions: agonist mode
Protocol: (§1) Two μL of the DMSO solutions were transferred to the plate and 38 μL of 10 nM LXRα-LBD or LXRβ-LBD (2×) were added immediately to the wells. The plate was shaken for 5 min at rt on an orbital micro shaker (DPC MicroMix® 5), after which 40 μL of 200 nM fluorescein-SRC2-3 peptide and 20 nM Terbium-anti-GST-antibody (Cat# PV3550, Life Technologies, Grand Island, N.Y.) solution (4×) were added to all. The plate was sealed and shaken for 2 min at rt, and incubated at rt for 2 h without agitation. […] The delay and window times were set at 100 and 200 microseconds, respectively. […] The percent control vs. compound concentration data were fit into a four-parameter model, and EC50 values were calculated from the fit as the concentrations corresponding to the inflection points on the concentration-response curves.

LXR β LBD protein [4] = target: T2, LXR β LBD protein (Homo sapiens (Human), UniProt P55055); test: biochemical; format: biochemical; conditions: for EC50: read-out: FRET LXRβ EC50
Protocol: as §1
Target sequence in this assay (P55055 222-460): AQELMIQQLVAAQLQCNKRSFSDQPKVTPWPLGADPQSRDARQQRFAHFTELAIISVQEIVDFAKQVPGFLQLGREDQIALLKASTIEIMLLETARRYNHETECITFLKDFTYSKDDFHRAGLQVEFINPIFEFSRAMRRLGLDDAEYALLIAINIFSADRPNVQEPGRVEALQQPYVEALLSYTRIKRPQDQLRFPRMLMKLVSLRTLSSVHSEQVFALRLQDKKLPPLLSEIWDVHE

LXR α LBD protein [5] = target: T1, LXR α LBD protein; test: LXR α radioligand binding assay (SPA, competition with [3H]TO901317); conditions: read-out: LXRα Binding Ki
LXR β LBD protein [6] = target: T2, LXR β LBD protein; test: biochemical; format: binding; conditions: read-out: LXRβ Binding Ki
Target sequence in this assay (P55055 222-460 limits assumed): as the sequence (P55055 222-460) above

[7] = agonist mode, read-out: Cell LXRβ EC50

Sequence of Gal4 DNA binding domain fused to the LBD of LXRα in HEK293 cells (Q13133 209-447): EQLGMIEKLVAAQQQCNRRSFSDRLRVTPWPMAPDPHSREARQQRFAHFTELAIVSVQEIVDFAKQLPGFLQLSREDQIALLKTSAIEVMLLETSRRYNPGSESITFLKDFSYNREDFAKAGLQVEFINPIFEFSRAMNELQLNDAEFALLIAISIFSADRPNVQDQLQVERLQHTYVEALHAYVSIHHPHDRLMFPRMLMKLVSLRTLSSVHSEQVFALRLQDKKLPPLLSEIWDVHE
T1 sequence (Q13133 209-447): as above
Sequence of Gal4 DNA binding domain fused to the LBD of LXRβ in HEK293 cells (P55055 222-460 limits assumed): as the sequence (P55055 222-460) above

Molecule | EC50 [1] [nM] | EC50 [2, 7] [nM] | EC50 (LXR α LBD protein [3]) [nM] | FRET LXRα efficacy (LXR α LBD protein [3]) [%] | FRET LXRβ efficacy (LXR β LBD protein [4]; agonist mode) | EC50 (LXR β LBD protein [4]; agonist mode) [nM] | EC50 [2] [nM] | FRET LXRβ efficacy (LXR β LBD protein [4]) | EC50 (LXR β LBD protein [4]) [nM] | Cell LXRβ efficacy [2] | EC50 ([1]; agonist mode) [nM] | Cell LXRβ efficacy ([2]; agonist mode) | Ki (LXR α LBD protein [5]) [nM] | Cell LXRα efficacy [1] | Ki (LXR β LBD protein [6]) [nM]
CS(=O)(=O)c1cc(N2CCN(C[C@H]3CC[C@H](C(F)(F)F)CC3)[C@H](c3ccccc3)C2)ccc1C(N)=O (single isomer, unassigned) [17-36] | > 20000 | > 20000 | 808 | 46 | 79% | 1180 |  |  |  |  |  |  |  |  | 
Cc1ccc(CN2CCN(c3cccc(S(C)(=O)=O)c3)C[C@H]2c2ccccc2)cc1 (single isomer, unassigned) [46-5] | > 20000 |  | > 50000 |  |  |  | > 20000 | 7159 (57) % | 7160 |  |  |  |  |  | 
CS(=O)(=O)c1cccc(N2CCN(Cc3ccc(OC(F)(F)F)cc3)[C@H](c3ccccc3)C2)c1 (single isomer, unassigned) [46-22] | > 20000 |  | 4620 | 42 |  |  | 2100 | 1273 (73) % | 1270 | 2095 (9) % |  |  |  |  | 
CS(=O)(=O)c1cccc(N2CCN(Cc3ccc(C(F)(F)F)c(F)c3)[C@H](c3ccccc3)C2)c1 (single isomer, unassigned) [46-25] |  |  | > 50000 |  | 17972 (116) % |  | 2560 |  | 18000 |  | > 20000 | 2557 (13) % |  |  | 
C[C@@]1(c2ccccc2)CN(c2cccc(S(C)(=O)=O)c2)CCN1Cc1ccc(C(F)(F)F)c(Cl)c1 (single isomer, unassigned) [46-35] |  |  | > 50000 |  |  |  | > 20000 |  | > 50000 |  | > 20000 |  |  |  | 
CS(=O)(=O)c1cccc(N2CCN(C[C@H]3CC[C@@H](C(F)(F)F)CC3)[C@H](c3ccccc3)C2)c1 (single isomer, unassigned) [48-30] | 4510 | 1630 | 12900 | 55 |  |  |  |  |  |  |  | 28% | 2540 | 4509 (17) % | 
CC(C)[C@@H]1CN(c2ccc(F)c(S(C)(=O)=O)c2)CCN1c1nccc(C2CC2)n1 [7-10, (R)-4-cyclopropyl-2-(4-(4-fluoro-3-(methylsulfonyl)phenyl)-2-isopropylpiperazin-1-yl)pyrimidine] | 586 |  | 292 | 55 |  |  | 95 |  |  | 95 (23) % |  |  | 236 | 586 (42) % | 13
CC(C)[C@@H]1CN(c2ccc(F)c(S(C)(=O)=O)c2)CCN1c1nc2ccc(C#N)cc2s1 [7-53, (R)-2-(4-(4-fluoro-3-(methylsulfonyl)phenyl)-2-isopropylpiperazin-1-yl)benzo[d]thiazole-6-carbonitrile] |  |  | > 50000 |  |  |  | 350 |  |  |  | 795 | 350 (26) % | 553 | 795 (40) % | 27
CC(C)[C@@H]1CN(c2cccc(S(N)(=O)=O)c2)CCN1c1nccc(C(F)(F)F)n1 [7-60, (R)-3-(3-isopropyl-4-(4-(trifluoromethyl)pyrimidin-2-yl)piperazin-1-yl)benzenesulfonamide] |  |  | 84 | 97 |  |  | 59 |  |  |  | 248 | 59 (75) % | 873 | 248 (95) % | 146
COC(=O)c1cnc(N2CCN(c3ccc(F)c(S(C)(=O)=O)c3)C[C@H]2C(C)C)nc1C(F)(F)F [9-2, methyl (R)-2-(4-(4-fluoro-3-(methylsulfonyl)phenyl)-2-isopropylpiperazin-1-yl)-4-(trifluoromethyl)pyrimidine-5-carboxylate] |  |  |  |  |  |  | 86 | 9 (91) % | 9 | 86 (34) % | 543 |  | 95 | 543 (54) % | 10
CS(=O)(=O)c1cccc(N2CCN(Cc3ccc(C(F)(F)F)cn3)[C@H](c3ccccc3)C2)c1 [46-63, (R)-4-(3-(methylsulfonyl)phenyl)-2-phenyl-1-((5-(trifluoromethyl)pyridin-2-yl)methyl)piperazine] |  |  |  |  | 50% | 7100 | > 20000 |  |  |  |  |  |  |  | 
CS(=O)(=O)c1cccc(N2CCN(Cc3ccc(C(F)(F)F)cn3)[C@@H](c3ccccc3)C2)c1 [46-64, (S)-4-(3-(methylsulfonyl)phenyl)-2-phenyl-1-((5-(trifluoromethyl)pyridin-2-yl)methyl)piperazine] |  |  |  |  | 34% | 1860 | 5800 |  |  |  |  | 5804 (13) % |  |  | > 2500
CS(=O)(=O)c1cccc(N2CCN(Cc3ccc(C(F)(F)F)o3)[C@H](c3ccccc3)C2)c1 [46-65, (R)-4-(3-(methylsulfonyl)phenyl)-2-phenyl-1-((5-(trifluoromethyl)furan-2-yl)methyl)piperazine] |  |  |  |  | 25% | 5770 | > 20000 |  |  |  |  |  |  |  | 
CS(=O)(=O)c1cccc(N2CCN(Cc3ccc(C(F)(F)F)o3)[C@@H](c3ccccc3)C2)c1 [46-66, (S)-4-(3-(methylsulfonyl)phenyl)-2-phenyl-1-((5-(trifluoromethyl)furan-2-yl)methyl)piperazine] |  |  |  |  |  | > 50000 | > 20000 |  |  |  |  |  |  |  | 207
CS(=O)(=O)c1cccc(N2CCN(CC3CCC(F)(F)CC3)[C@@H](c3ccccc3)C2)c1 [48-13, (S)-1-((4,4-difluorocyclohexyl)methyl)-4-(3-(methylsulfonyl)phenyl)-2-phenylpiperazine] |  |  | 632 | 23 |  |  |  |  |  |  | 2620 |  | 867 | 2624 (20) % | 
CC(C)[C@@H]1CN(c2cccc(S(C)(=O)=O)c2)CCN1c1ncc(C2CC2)cn1 [Cpd No 7-5, (R)-5-cyclopropyl-2-(2-isopropyl-4-(3-(methylsulfonyl)phenyl)piperazin-1-yl)pyrimidine] | 501 |  | 313 | 60 |  |  | 93 |  |  | 93 (32) % |  |  | 346 | 501 (64) % | 26
CS(=O)(=O)c1cccc(N2CCN(Cc3ccc(C(F)(F)F)c(Cl)c3)[C@@H](Cc3ccccc3)C2)c1 [Cpd No 45-1, (S)-2-benzyl-1-(3-chloro-4-(trifluoromethyl)benzyl)-4-(3-(methylsulfonyl)phenyl)piperazine] | 3620 |  |  | 39 |  |  |  |  |  |  |  |  |  | 3618 (61) % | 
CC1(C)CCC(CN2CCN(c3cccc(S(C)(=O)=O)c3)C[C@H]2c2ccccc2)CC1 [Cpd No 48-3, (R)-1-((4,4-dimethylcyclohexyl)methyl)-4-(3-(methylsulfonyl)phenyl)-2-phenylpiperazine] | 4270 |  | 5190 | 31 |  |  |  |  |  |  |  |  | 2340 | 4273 (20) % | 
tert-butyl (S)-2-isobutyl-4-(3-(methylsulfonyl)phenyl)piperazine-1-carboxylate [1-2] | 9220 |  | 6810 | 55 |  |  |  |  |  |  |  |  |  | 9219 (6) % | 

Source: patent US10144715B2, “Piperazine derivatives as liver X receptor modulators” (priority 2014, dated 2018)
